In ChEMBL document CHEMBL4819029, “Biflavanones, Chalconoids, and Flavonoid Analogues from the Stem Bark of Ochna holstii” (J Nat Prod, 2021):
Converted amounts (≈) assume the structure as drawn. The source made the active and inactive calls. No cut-off for these calls is given here.

How the values were obtained:
Bacillus subtilis = assay: Antibacterial activity against Bacillus subtilis incubated for 24 hrs by resazurin based assay; type: functional
Escherichia coli = assay: Antibacterial activity against Escherichia coli incubated for 24 hrs by resazurin based assay; type: functional, organism-based
MCF7 = assay: Cytotoxicity against human MCF7 cells assessed as reduction in cell viability after 24 hrs by PrestoBlue dye based fluorescence assay; type: functional; settings: MCF7, 24 h

Row | MIC (Bacillus subtilis) [µM] | Structure (SMILES) | Activity (Escherichia coli) | EC50 (MCF7) [µM]
1 | > 250 | COc1cc(O)c2c(c1)OC(c1ccc(O)cc1)C(C1C(=O)c3c(O)cc(OC)cc3OC1c1ccc(O)cc1)C2=O (stereo not drawn) | – | –
2 | > 250 | COc1ccc([C@H]2Oc3cc(OC)cc(O)c3C(=O)[C@@H]2[C@H]2C(=O)c3c(O)cc(OC)cc3O[C@@H]2c2ccc(O)cc2)cc1 | – | –
3 | > 250 | O=C(c1ccc(O)cc1O)[C@H]1[C@H](C(=O)c2ccc(O)cc2O)[C@H](c2ccc(O)cc2)O[C@@H]1c1ccc(O)cc1 | inactive | 24
4 | 14 (≈ 7.57 µg/mL) | COc1cc(O)c2c(c1)O[C@@H](c1ccc(O)cc1)[C@H]([C@@H]1C(=O)c3ccc(O)cc3O[C@H]1c1ccc(O)cc1)C2=O | – | –
5 | > 250 | O=C(/C=C/c1ccc(O)c(Oc2ccc(CCC(=O)c3ccc(O)cc3O)cc2)c1)c1ccc(O)cc1O | – | –
6 | > 250 | O=C1c2ccc(O)cc2O[C@@H](c2ccc(O)cc2)[C@@H]1[C@@H]1C(=O)c2ccc(O)cc2O[C@H]1c1ccc(O)cc1 | – | –
